Assay results: ChEMBL document CHEMBL1921790, “Synthesis and antimicrobial activity of brominated resorcinol dimers” (Bioorg Med Chem Lett, 2011)
≈ marks a conversion by molar mass, not a printed value.

system: Micrococcus luteus; assay: Antibacterial activity against Micrococcus luteus IFC 12708 after 24 hrs by two fold serial dilution method; type: functional; conditions: IFC 12708, 24 h

| SMILES | MIC |
| --- | --- |
| Oc1ccc(C(c2ccc(O)cc2O)c2cc(Br)c(O)cc2O)cc1 (stereo unspecified) | 3.12 µg/mL (≈ 7.74 µM) |
| Oc1ccc(C(c2cc(Br)c(O)cc2O)c2c(Cl)cccc2Cl)c(O)c1 (stereo unspecified) | 12.5 µg/mL (≈ 27.4 µM) |
| O=[N+]([O-])c1cccc(C(c2ccc(O)cc2O)c2cc(Br)c(O)cc2O)c1 (stereo unspecified) | 12.5 µg/mL (≈ 28.9 µM) |
| O=[N+]([O-])c1ccc(C(c2ccc(O)cc2O)c2cc(Br)c(O)cc2O)cc1 (stereo unspecified) | 50 µg/mL (≈ 116 µM) |
| CCCCCC(c1ccc(O)cc1O)c1ccc(O)cc1O | 12.5 µg/mL (≈ 41.3 µM) |
| CC1(C)S[C@@H]2[C@H](NC(=O)[C@H](N)c3ccccc3)C(=O)N2[C@H]1C(=O)O [AMPICILLIN] | 1.56 µg/mL (≈ 4.46 µM) |

system: Trichophyton mentagrophytes; assay: Antifungal activity against Trichophyton mentagrophytes IFO 40996 after 48 to 72 hrs by two fold serial dilution method; type: functional; conditions: not given

| SMILES | MIC |
| --- | --- |
| Oc1ccc(C(c2ccc(O)cc2O)c2cc(Br)c(O)cc2O)cc1 (stereo unspecified) | > 100 µg/mL |
| Oc1ccc(C(c2cc(Br)c(O)cc2O)c2c(Cl)cccc2Cl)c(O)c1 (stereo unspecified) | > 100 µg/mL |
| O=[N+]([O-])c1cccc(C(c2ccc(O)cc2O)c2cc(Br)c(O)cc2O)c1 (stereo unspecified) | > 100 µg/mL |
| O=[N+]([O-])c1ccc(C(c2ccc(O)cc2O)c2cc(Br)c(O)cc2O)cc1 (stereo unspecified) | > 100 µg/mL |
| CCCCCC(c1ccc(O)cc1O)c1ccc(O)cc1O | > 100 µg/mL |
| CC1(C)S[C@@H]2[C@H](NC(=O)[C@H](N)c3ccccc3)C(=O)N2[C@H]1C(=O)O [AMPICILLIN] | 1.56 µg/mL (≈ 4.46 µM) |

system: Candida albicans; assay: Antifungal activity against Candida albicans ATCC 10231 after 24 to 72 hrs by two fold serial dilution method; type: functional; conditions: not given

| SMILES | MIC |
| --- | --- |
| Oc1ccc(C(c2ccc(O)cc2O)c2cc(Br)c(O)cc2O)cc1 (stereo unspecified) | > 100 µg/mL |
| Oc1ccc(C(c2cc(Br)c(O)cc2O)c2c(Cl)cccc2Cl)c(O)c1 (stereo unspecified) | > 100 µg/mL |
| O=[N+]([O-])c1cccc(C(c2ccc(O)cc2O)c2cc(Br)c(O)cc2O)c1 (stereo unspecified) | 100 µg/mL (≈ 231 µM) |
| O=[N+]([O-])c1ccc(C(c2ccc(O)cc2O)c2cc(Br)c(O)cc2O)cc1 (stereo unspecified) | > 100 µg/mL |
| CCCCCC(c1ccc(O)cc1O)c1ccc(O)cc1O | > 100 µg/mL |
| CC1(C)S[C@@H]2[C@H](NC(=O)[C@H](N)c3ccccc3)C(=O)N2[C@H]1C(=O)O [AMPICILLIN] | 0.78 µg/mL (≈ 2.23 µM) |

system: Trichophyton rubrum; assay: Antifungal activity against Trichophyton rubrum IFO 9185 after 48 to 72 hrs by two fold serial dilution method; type: functional; conditions: not given

| SMILES | MIC |
| --- | --- |
| Oc1ccc(C(c2ccc(O)cc2O)c2cc(Br)c(O)cc2O)cc1 (stereo unspecified) | > 100 µg/mL |
| Oc1ccc(C(c2cc(Br)c(O)cc2O)c2c(Cl)cccc2Cl)c(O)c1 (stereo unspecified) | > 100 µg/mL |
| O=[N+]([O-])c1cccc(C(c2ccc(O)cc2O)c2cc(Br)c(O)cc2O)c1 (stereo unspecified) | > 100 µg/mL |
| O=[N+]([O-])c1ccc(C(c2ccc(O)cc2O)c2cc(Br)c(O)cc2O)cc1 (stereo unspecified) | > 100 µg/mL |
| CCCCCC(c1ccc(O)cc1O)c1ccc(O)cc1O | > 100 µg/mL |
| CC1(C)S[C@@H]2[C@H](NC(=O)[C@H](N)c3ccccc3)C(=O)N2[C@H]1C(=O)O [AMPICILLIN] | 1.56 µg/mL (≈ 4.46 µM) |

system: Proteus vulgaris; assay: Antibacterial activity against Proteus vulgaris ATCC 3851 after 24 hrs by two fold serial dilution method; type: functional; conditions: ATCC 3851, 24 h

| SMILES | MIC |
| --- | --- |
| Oc1ccc(C(c2ccc(O)cc2O)c2cc(Br)c(O)cc2O)cc1 (stereo unspecified) | 3.12 µg/mL (≈ 7.74 µM) |
| Oc1ccc(C(c2cc(Br)c(O)cc2O)c2c(Cl)cccc2Cl)c(O)c1 (stereo unspecified) | 12.5 µg/mL (≈ 27.4 µM) |
| O=[N+]([O-])c1cccc(C(c2ccc(O)cc2O)c2cc(Br)c(O)cc2O)c1 (stereo unspecified) | 6.25 µg/mL (≈ 14.5 µM) |
| O=[N+]([O-])c1ccc(C(c2ccc(O)cc2O)c2cc(Br)c(O)cc2O)cc1 (stereo unspecified) | 100 µg/mL (≈ 231 µM) |
| CCCCCC(c1ccc(O)cc1O)c1ccc(O)cc1O | 12.5 µg/mL (≈ 41.3 µM) |
| CC1(C)S[C@@H]2[C@H](NC(=O)[C@H](N)c3ccccc3)C(=O)N2[C@H]1C(=O)O [AMPICILLIN] | 0.78 µg/mL (≈ 2.23 µM) |

system: Escherichia coli; assay: Antibacterial activity against Escherichia coli ATCC 25922 after 24 hrs by two fold serial dilution method; type: functional; conditions: ATCC 25922, 24 h

| SMILES | MIC |
| --- | --- |
| Oc1ccc(C(c2ccc(O)cc2O)c2cc(Br)c(O)cc2O)cc1 (stereo unspecified) | > 100 µg/mL |
| Oc1ccc(C(c2cc(Br)c(O)cc2O)c2c(Cl)cccc2Cl)c(O)c1 (stereo unspecified) | > 100 µg/mL |
| O=[N+]([O-])c1cccc(C(c2ccc(O)cc2O)c2cc(Br)c(O)cc2O)c1 (stereo unspecified) | > 100 µg/mL |
| O=[N+]([O-])c1ccc(C(c2ccc(O)cc2O)c2cc(Br)c(O)cc2O)cc1 (stereo unspecified) | > 100 µg/mL |
| CCCCCC(c1ccc(O)cc1O)c1ccc(O)cc1O | 100 µg/mL (≈ 331 µM) |
| CC1(C)S[C@@H]2[C@H](NC(=O)[C@H](N)c3ccccc3)C(=O)N2[C@H]1C(=O)O [AMPICILLIN] | 6.25 µg/mL (≈ 17.9 µM) |

system: Staphylococcus aureus; assay: Antibacterial activity against Staphylococcus aureus ATCC 6538p after 24 hrs by two fold serial dilution method; type: functional; conditions: not given

| SMILES | MIC |
| --- | --- |
| Oc1ccc(C(c2ccc(O)cc2O)c2cc(Br)c(O)cc2O)cc1 (stereo unspecified) | 6.25 µg/mL (≈ 15.5 µM) |
| Oc1ccc(C(c2cc(Br)c(O)cc2O)c2c(Cl)cccc2Cl)c(O)c1 (stereo unspecified) | 12.5 µg/mL (≈ 27.4 µM) |
| O=[N+]([O-])c1cccc(C(c2ccc(O)cc2O)c2cc(Br)c(O)cc2O)c1 (stereo unspecified) | 12.5 µg/mL (≈ 28.9 µM) |
| O=[N+]([O-])c1ccc(C(c2ccc(O)cc2O)c2cc(Br)c(O)cc2O)cc1 (stereo unspecified) | 100 µg/mL (≈ 231 µM) |
| CCCCCC(c1ccc(O)cc1O)c1ccc(O)cc1O | 12.5 µg/mL (≈ 41.3 µM) |
| CC1(C)S[C@@H]2[C@H](NC(=O)[C@H](N)c3ccccc3)C(=O)N2[C@H]1C(=O)O [AMPICILLIN] | 0.39 µg/mL (≈ 1.12 µM) |

system: Bacillus subtilis; assay: Antibacterial activity against Bacillus subtilis ATCC 6633 after 24 hrs by two fold serial dilution method; type: functional; conditions: ATCC 6633, 24 h

| SMILES | MIC |
| --- | --- |
| Oc1ccc(C(c2ccc(O)cc2O)c2cc(Br)c(O)cc2O)cc1 (stereo unspecified) | 3.12 µg/mL (≈ 7.74 µM) |
| Oc1ccc(C(c2cc(Br)c(O)cc2O)c2c(Cl)cccc2Cl)c(O)c1 (stereo unspecified) | 6.25 µg/mL (≈ 13.7 µM) |
| O=[N+]([O-])c1cccc(C(c2ccc(O)cc2O)c2cc(Br)c(O)cc2O)c1 (stereo unspecified) | 6.25 µg/mL (≈ 14.5 µM) |
| O=[N+]([O-])c1ccc(C(c2ccc(O)cc2O)c2cc(Br)c(O)cc2O)cc1 (stereo unspecified) | 50 µg/mL (≈ 116 µM) |
| CCCCCC(c1ccc(O)cc1O)c1ccc(O)cc1O | 6.25 µg/mL (≈ 20.7 µM) |
| CC1(C)S[C@@H]2[C@H](NC(=O)[C@H](N)c3ccccc3)C(=O)N2[C@H]1C(=O)O [AMPICILLIN] | 0.39 µg/mL (≈ 1.12 µM) |

system: Salmonella typhimurium; assay: Antibacterial activity against Salmonella Typhimurium ATCC 14028 after 24 hrs by two fold serial dilution method; type: functional, Salmonella enterica subsp. enterica serovar Typhimurium; conditions: Salmonella enterica, ATCC 14028, 24 h

| SMILES | MIC |
| --- | --- |
| Oc1ccc(C(c2ccc(O)cc2O)c2cc(Br)c(O)cc2O)cc1 (stereo unspecified) | 6.25 µg/mL (≈ 15.5 µM) |
| Oc1ccc(C(c2cc(Br)c(O)cc2O)c2c(Cl)cccc2Cl)c(O)c1 (stereo unspecified) | 12.5 µg/mL (≈ 27.4 µM) |
| O=[N+]([O-])c1cccc(C(c2ccc(O)cc2O)c2cc(Br)c(O)cc2O)c1 (stereo unspecified) | 6.25 µg/mL (≈ 14.5 µM) |
| O=[N+]([O-])c1ccc(C(c2ccc(O)cc2O)c2cc(Br)c(O)cc2O)cc1 (stereo unspecified) | 100 µg/mL (≈ 231 µM) |
| CCCCCC(c1ccc(O)cc1O)c1ccc(O)cc1O | 12.5 µg/mL (≈ 41.3 µM) |
| CC1(C)S[C@@H]2[C@H](NC(=O)[C@H](N)c3ccccc3)C(=O)N2[C@H]1C(=O)O [AMPICILLIN] | 0.78 µg/mL (≈ 2.23 µM) |

system: Aspergillus fumigatus; assay: Antifungal activity against Aspergillus fumigatus HIC 6094 after 48 to 72 hrs by two fold serial dilution method; type: functional; conditions: not given

| SMILES | MIC |
| --- | --- |
| Oc1ccc(C(c2ccc(O)cc2O)c2cc(Br)c(O)cc2O)cc1 (stereo unspecified) | > 100 µg/mL |
| Oc1ccc(C(c2cc(Br)c(O)cc2O)c2c(Cl)cccc2Cl)c(O)c1 (stereo unspecified) | > 100 µg/mL |
| O=[N+]([O-])c1cccc(C(c2ccc(O)cc2O)c2cc(Br)c(O)cc2O)c1 (stereo unspecified) | > 100 µg/mL |
| O=[N+]([O-])c1ccc(C(c2ccc(O)cc2O)c2cc(Br)c(O)cc2O)cc1 (stereo unspecified) | > 100 µg/mL |
| CCCCCC(c1ccc(O)cc1O)c1ccc(O)cc1O | > 100 µg/mL |
| CC1(C)S[C@@H]2[C@H](NC(=O)[C@H](N)c3ccccc3)C(=O)N2[C@H]1C(=O)O [AMPICILLIN] | 1.56 µg/mL (≈ 4.46 µM) |

target: Isocitrate lyase (Candida albicans, UniProt Q9P8Q7); assay: Inhibition of Candida albicans isocitrate lyase after 30 mins; conditions: not given
Sequence (Q9P8Q7 whole entry): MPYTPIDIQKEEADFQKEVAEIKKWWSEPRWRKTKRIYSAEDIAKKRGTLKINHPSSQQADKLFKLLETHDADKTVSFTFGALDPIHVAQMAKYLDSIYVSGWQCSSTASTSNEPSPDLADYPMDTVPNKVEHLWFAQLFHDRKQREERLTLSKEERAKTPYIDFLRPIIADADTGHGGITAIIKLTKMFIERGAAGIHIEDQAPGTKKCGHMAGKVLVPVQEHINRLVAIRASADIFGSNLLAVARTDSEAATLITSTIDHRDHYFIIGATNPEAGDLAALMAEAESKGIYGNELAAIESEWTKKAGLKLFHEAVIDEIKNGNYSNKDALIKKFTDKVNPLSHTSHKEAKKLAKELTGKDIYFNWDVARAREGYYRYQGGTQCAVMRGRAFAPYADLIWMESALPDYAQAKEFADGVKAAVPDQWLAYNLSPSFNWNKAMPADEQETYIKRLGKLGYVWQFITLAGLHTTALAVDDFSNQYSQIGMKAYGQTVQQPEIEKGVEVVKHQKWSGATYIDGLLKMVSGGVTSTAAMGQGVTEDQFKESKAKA

| SMILES | IC50 |
| --- | --- |
| Oc1ccc(C(c2ccc(O)cc2O)c2cc(Br)c(O)cc2O)cc1 (stereo unspecified) | 90.5 µM |
| Oc1ccc(C(c2cc(Br)c(O)cc2O)c2c(Cl)cccc2Cl)c(O)c1 (stereo unspecified) | 78.7 µM |
| O=[N+]([O-])c1cccc(C(c2ccc(O)cc2O)c2cc(Br)c(O)cc2O)c1 (stereo unspecified) | 69.9 µM |
| O=[N+]([O-])c1ccc(C(c2ccc(O)cc2O)c2cc(Br)c(O)cc2O)cc1 (stereo unspecified) | 41.2 µM |
| CCCCCC(c1ccc(O)cc1O)c1ccc(O)cc1O | 167 µM |
| O=C(O)CC[N+](=O)[O-] | 6 µM |
